Measured values published in article PMC6268314, “Diterpenoids from the Buds of Pinus banksiana Lamb” (Molecules, 2012).

What was measured:
Format in all cases: cell-based
[1] = test system: DLD-1, human colorectal adenocarcinoma cell line; test: Cytotoxicity assay (Hoechst DNA assay), DLD-1; details: concentration inhibiting 50% cell growth, 48 h, mean of three independent assays; for IC50: Homo sapiens, DLD-1
Experimental: (§1) P. banksiana buds were extracted successively with hexanes, CH2Cl2 and MeOH. After solvent evaporation, each extract was investigated for in vitro cytotoxic and antibacterial activities. Cytotoxic activity evaluations were carried out on lung cancer (A549), colorectal cancer (DLD-1) and normal skin fibroblasts (WS1) human cell lines using the Hoechst assay. Antibacterial activity was evaluated against Escherichia coli and Staphylococcus aureus. […] Therefore, following studies were focused on the CH2Cl2 extract that was further separated over column chromatography on silica gel to afford eleven fractions (A–K). All fractions activities were tested against both cancer cell lines and bacterial strains. […] In a next step, fractions F, G, H and K were separated by a combination of chromatographic procedures to afford the three new compounds 1–3 together with 12 known compounds. The structures of the new compounds were determined as follows and the known products were identified by comparison of their spectroscopic data with values found in the literature.
(§2) Lung carcinoma (A549), colorectal adenocarcinoma (DLD-1) and normal skin fibroblast (WS1) human cell lines were obtained from the American Type Culture Collection (ATCC). All cell lines were cultured in minimum essential medium containing Earle’s salts and L-glutamine (Mediatech Cellgro, VA, USA), to which were added 10% fetal bovine serum (Hyclone), vitamins (1X), penicillin (100 I.U./mL) and streptomycin (100 µg/mL), essential amino acids (1X) and sodium pyruvate (1X) (Mediatech Cellgro, VA). Cells were kept at 37 °C in a humidified environment containing 5% CO2. Antibacterial activity was tested on Escherichia coli ATCC 25922 and Staphylococcus aureus ATCC 25923E.
(§3) Exponentially growing cells were plated on 96-well microplates (BD Falcon) at a density of 5 × 10^3 cells per well in 100 μL of culture medium (DMEM with 10% SVF) and were allowed to adhere for 24 h before treatment. Increasing concentrations of each compound in MeOH or DMSO were then added (100 μL per well) and cells were incubated for 48 h. The final concentration of MeOH or DMSO in the culture medium was maintained at 0.25% (v/v) to avoid solvent toxicity. Microplates were then emptied and stored at −80 °C for 24 h. In a next step, 100 μL of SDS (0.01%) were added and the microplates were incubated at room temperature during 3 h before being put back to the cold. After 24 h, cells were prepared for cellular DNA assay with 100 μL of Hoechst dye 33342. Measurements were performed on the same labsystems at 365 and 460 nm wavelengths. Survival percentage was defined as the fluorescene in experimental wells compared to the control wells after subtraction of the blank values. Etoposide was used as positive control. Each experiment was carried out two times in triplicata. IC50 results were expressed as averaged values and the corresponding standard deviations were computed.

[2] = test system: WS1, human normal skin fibroblasts; test: Cytotoxicity assay (Hoechst DNA assay), WS1; details: Skin fibroblast, concentration inhibiting 50% cell growth, 48 h, mean of three independent assays
Experimental: as §1, §2
as §3, with “Each experiment was carried out two times in triplicata.” left out

[3] = test system: A549, human lung carcinoma cell line; test: Cytotoxicity assay (Hoechst DNA assay), A549; details: for IC50: Homo sapiens, A549, concentration inhibiting 50% cell growth, 48 h, mean of three independent assays
Experimental: as §1, §2, §3

[4] = test system: Staphylococcus aureus ATCC 25923; test: Antibacterial microdilution assay (resazurin), S. aureus; details: 6 h at 37 °C
Experimental: as §2
(§4) Antibacterial activity was evaluated using the microdilution method described by Banfi et al. with some modifications. Exponentially growing bacteria were plated in 96-well flat bottom microplates (BD Flacon) at a density of 5 × 10^3 gram-negative E. coli (ATCC 25922) or 40 × 10^3 gram-positive S. aureus (ATCC 25923) per well in 100 μL nutrient broth (Difco). The concentration of ethanol in the culture medium was maintained at 0.25% (v/v) to avoid solvent toxicity. Thereafter, 50 μL of 4% resazurin was added to each well and the microplates were incubated for 6 h at 37 °C. Fluorescence was measured after 6 h with an automated 96-well Fluoroskan Ascent Fl™ plate reader (Labsystems) using 530 and 590 nm excitation and emission wavelengths.

[5] = test system: Escherichia coli ATCC 25922; test: Antibacterial microdilution assay (resazurin), E. coli; details: 6 h at 37 °C
Experimental: as §2, §4

Structure (SMILES)	IC50 ([1]; isolated compounds)	IC50 ([2]; isolated compounds)	IC50 ([3]; isolated compounds)	IC50 ([4]; ATCC25923, isolated compounds)	IC50 ([5]; ATCC25922, isolated compounds)	IC50 DLD-1 ([1]; isolated compounds)	cytotoxicity against lung carcinoma A549 (in words) ([3]; isolated compounds)	IC50 ([1]; extracts and fractions)	IC50 ([2]; extracts and fractions)	IC50 ([3]; extracts and fractions)	IC50 ([4]; ATCC25923, extracts and fractions)	IC50 ([5]; ATCC25922, extracts and fractions)
CC(C)c1ccc2c(c1)[C@@H](O)CC1[C@](C)(O)CCC[C@]21C (stereo partly drawn) [Compound 9, 18-nor-abieta-8,11,13-triene-4,7β-diol]	> 100 µM	> 100 µM	> 100 µM	> 100 µM	> 100 µM	–	–	–	–	–	–	–
C[C@@]1(CO)CCC[C@]2(C)c3ccc(O)cc3CCC12 (stereo partly shown) [Compound 3]	> 100 µM	> 100 µM	> 100 µM	> 100 µM	> 100 µM	–	–	–	–	–	–	–
CC(C)(O)c1ccc2c(c1)[C@H](O)CC1[C@](C)(C=O)CCC[C@]21C (stereo partly drawn) [Compound 4, 7α,15-dihydroxyabieta-8,11,13-trien-18-al]	> 100 µM	> 100 µM	> 100 µM	> 100 µM	> 100 µM	–	–	–	–	–	–	–
CC(C)c1ccc2c(c1)[C@H](O)CC1[C@](C)(C(=O)O)CCC[C@]21C (stereo partly drawn) [Compound 10, 7α-hydroxydehydroabietic acid]	> 100 µM	> 100 µM	> 100 µM	> 100 µM	> 100 µM	–	–	–	–	–	–	–
CC(C)(O)c1ccc2c(c1)C(=O)C[C@H]1[C@](C)(O)CCC[C@]21C [Compound 13, 18-nor-4,15-dihydroxyabieta-8,11,13-trien-7-one]	> 100 µM	> 100 µM	46 ± 3 µM	> 100 µM	> 100 µM	not to DLD-1	moderate cytotoxicity	–	–	–	–	–
COc1cc([C@@H]2c3cc4c(cc3[C@@H](O[C@@H]3O[C@@H]5CO[C@@H](C)O[C@H]5[C@H](O)[C@H]3O)[C@H]3COC(=O)[C@H]23)OCO4)cc(OC)c1O [Etoposide, reference compound]	2.9 ± 0.5 µM	10 ± 2 µM	0.7 ± 0.3 µM	–	–	–	–	1.7 ± 0.3 µg/mL	5.9 ± 0.6 µg/mL	0.4 ± 0.2 µg/mL	–	–
CC(C)(O)c1ccc2c(c1)C(=O)CC1[C@](C)(CO)CCC[C@]21C (stereo partly shown) [Compound 14, 15,18-dihydroxyabieta-8,11,13-trien-7-one]	> 100 µM	> 100 µM	> 100 µM	> 100 µM	> 100 µM	–	–	–	–	–	–	–
CC(C)(O)c1ccc2c(c1)CC[C@H]1[C@](C)(C(=O)O)CCC[C@]21C [Compound 7, 15-hydroxydehydroabietic acid]	> 100 µM	> 100 µM	98 ± 2 µM	> 100 µM	> 100 µM	–	–	–	–	–	–	–
CC(C)(O)c1ccc2c(c1)[C@H](O)CC1[C@](C)(C(=O)O)CCC[C@]21C (stereo partly drawn) [Compound 5, 7α,15-dihydroxydehydroabietic acid]	> 100 µM	> 100 µM	> 100 µM	> 100 µM	> 100 µM	–	–	–	–	–	–	–
C=C(C)c1ccc2c(c1)[C@H](O)CC1[C@](C)(C(=O)O)CCC[C@]21C (stereo partly drawn) [Compound 1, 7α-hydroxyabieta-8,11,13,15-tetraen-18-oic acid]	> 100 µM	> 100 µM	> 100 µM	> 100 µM	> 100 µM	–	–	–	–	–	–	–
CC(C)(O)c1ccc2c(c1)C(=O)CC1[C@](C)(C(=O)O)CCC[C@]21C (stereo partly shown) [Compound 15, 15-hydroxy-7-oxo-abieta-8,11,13-trien-18-oic acid]	> 100 µM	> 100 µM	> 100 µM	> 100 µM	> 100 µM	–	–	–	–	–	–	–
CC(C)c1ccc2c(c1)C(=O)C[C@H]1[C@](C)(CO)CCC[C@]21C [Compound 12, 7-oxodehydroabietinol]	47 ± 9 µM	> 100 µM	34 ± 4 µM	> 100 µM	> 100 µM	–	moderate cytotoxicity	–	–	–	–	–
O=C(N[C@H](CO)[C@H](O)c1ccc([N+](=O)[O-])cc1)C(Cl)Cl [Chloramphenicol, reference compound]	–	–	–	> 5 µM	0.37 ± 0.06 µM	–	–	–	–	–	> 1.6 µg/mL	0.12 ± 0.02 µg/mL
CC(C)(O)c1ccc2c(c1)[C@@H](O)CC1[C@](C)(C(=O)O)CCC[C@]21C (stereo partly drawn) [Compound 6, 7β,15-dihydroxydehydroabietic acid]	> 100 µM	> 100 µM	> 100 µM	> 100 µM	> 100 µM	–	–	–	–	–	–	–
CC(C)c1ccc2c(c1)[C@H](O)CC1[C@](C)(O)CCC[C@]21C (stereo partly drawn) [Compound 8, 18-nor-abieta-8,11,13-triene-4,7α-diol]	91 ± 9 µM	> 100 µM	63 ± 7 µM	> 100 µM	> 100 µM	–	–	–	–	–	–	–
CC(C)c1ccc2c(c1)[C@@H](O)CC1[C@](C)(C(=O)O)CCC[C@]21C (stereo partly drawn) [Compound 11, 7β-hydroxydehydroabietic acid]	> 100 µM	> 100 µM	> 100 µM	> 100 µM	> 100 µM	–	–	–	–	–	–	–
CC(C)(O)c1ccc2c(c1)C(O)CC1C(C)(CO)CCCC21C (stereo not drawn) [Compound 2, 7β,15,18-trihydroxyabieta-8,11,13-triene]	> 100 µM	> 100 µM	> 100 µM	> 100 µM	> 100 µM	–	–	–	–	–	–	–
